# System: U-2932 cells
# Experiment: SILAC phosphoproteomic analysis
# Procedure: For differential SILAC encoding, both cells were grown in arginine- and lysine-deficient culture medium containing light (Arg0/Lys0) or heavy (Arg10/Lys8) isotopic forms of L-arginine and L-lysine (SILAC medium). […] For mass spectrometric analysis, phosphopeptide-enriched samples were loaded onto a reversed phase analytical column, resolved by an acetonitrile gradient using a nanoflow HPLC system and directly electrosprayed via a nanoelectrospray ion source into an LTQ-Orbitrap Velos mass spectrometer (Thermo Fisher Scientific). […] A false discovery rate (FDR) of 0.01 was selected for protein and peptide identification, and a posterior error probability of ≤0.1 for each peptide-to-spectral match was required. The resulting list of phosphosites exported from the MaxQuant software was filtered for class-I sites (only serine, threonine, or tyrosine assignments with a localization probability of ≥0.75) [33] and used for all subsequent biostatistical analysis. […] Gaussian regression analysis on the histogram plot of these log2-transformed ratios was performed using Sigmaplot (version 10.0; Systat Software Inc.). The obtained values for the mean and standard deviation across the whole quantitative dataset were used to determine thresholds for significant regulation of at least ±2.5 σ. […] Furthermore, only phosphosites conforming to this criterion and showing consistent regulation in both biological replicates were considered as regulated.
smiles,measurement,setting,value
CC#CC(=O)N1CC[C@@H](n2c(=O)n(-c3ccc(Oc4ccccc4)cc3)c3c(N)ncnc32)C1 [Tirabrutinib],number of downregulated (suppressed) phosphorylation sites,"1 μM, 1 h, ratio <0.664",30
same,number of upregulated (induced) phosphorylation sites,"1 μM, 1 h, ratio >1.506",four
same,Tirabrutinib/ctrl. rep. 1,AKT1S1 S88,1.16
same,Tirabrutinib/ctrl. rep. 2,AKT1S1 S88,1.03
same,Tirabrutinib/ctrl. rep. 1,AKT1S1 S183,0.86
same,Tirabrutinib/ctrl. rep. 2,AKT1S1 S183,0.93
same,Tirabrutinib/ctrl. rep. 2,AKT1S1 T97,0.84
same,Tirabrutinib/ctrl. rep. 1,AKT1S1 T246,0.84
same,Tirabrutinib/ctrl. rep. 2,AKT1S1 T246,0.87
same,Tirabrutinib/ctrl. rep. 2,AKT1 S124,0.96
same,Tirabrutinib/ctrl. rep. 1,AKT2 S126,1.09
same,Tirabrutinib/ctrl. rep. 2,AKT2 S126,0.97
same,Tirabrutinib/ctrl. rep. 1,ATF2 S90,0.87
same,Tirabrutinib/ctrl. rep. 2,ATF2 S90,0.93
same,Tirabrutinib/ctrl. rep. 1,ATF2 S112,1.02
same,Tirabrutinib/ctrl. rep. 2,ATF2 S112,1.00
same,Tirabrutinib/ctrl. rep. 1,ATF2 T71,0.99
same,Tirabrutinib/ctrl. rep. 2,ATF2 T71,0.86
same,Tirabrutinib/ctrl. rep. 1,ATF2 T73,0.69
same,Tirabrutinib/ctrl. rep. 2,CARD11 S483,1.78
same,Tirabrutinib/ctrl. rep. 1,CARD11 S610,0.99
same,Tirabrutinib/ctrl. rep. 2,CARD11 S610,0.96
same,Tirabrutinib/ctrl. rep. 1,CARD11 S903,1.10
same,Tirabrutinib/ctrl. rep. 2,CARD11 S903,1.31
same,Tirabrutinib/ctrl. rep. 1,CARD11 S910,1.78
same,Tirabrutinib/ctrl. rep. 2,CARD11 S910,0.95
same,Tirabrutinib/ctrl. rep. 1,CARD11 S942,0.96
same,Tirabrutinib/ctrl. rep. 2,CARD11 S942,0.97
same,Tirabrutinib/ctrl. rep. 1,ERF S21,0.26
same,Tirabrutinib/ctrl. rep. 1,HSP27 S78,1.14
same,Tirabrutinib/ctrl. rep. 2,HSP27 S78,0.79
same,Tirabrutinib/ctrl. rep. 1,HSP27 S82,1.09
same,Tirabrutinib/ctrl. rep. 2,HSP27 S82,0.76
same,Tirabrutinib/ctrl. rep. 1,HSP27 S86,0.81
same,Tirabrutinib/ctrl. rep. 2,HSP27 S86,1.16
same,Tirabrutinib/ctrl. rep. 1,IKBKB S550,0.86
same,Tirabrutinib/ctrl. rep. 2,IKBKB S550,0.97
same,Tirabrutinib/ctrl. rep. 1,IKBKB S672,1.04
same,Tirabrutinib/ctrl. rep. 2,IKBKB S672,1.20
same,Tirabrutinib/ctrl. rep. 1,IKBKG S455,1.15
same,Tirabrutinib/ctrl. rep. 2,IKBKG S455,0.87
same,Regulation of Phosphorylation Site,MAPK1 T185,↓
same,Tirabrutinib/ctrl. rep. 1,MAPK1 T185,0.23
same,Tirabrutinib/ctrl. rep. 2,MAPK1 T185,0.41
same,Regulation of Phosphorylation Site,MAPK1 Y187,↓
same,Tirabrutinib/ctrl. rep. 1,MAPK1 Y187,0.23
same,Tirabrutinib/ctrl. rep. 2,MAPK1 Y187,0.41
same,Tirabrutinib/ctrl. rep. 1,NHE1 S602,0.96
same,Tirabrutinib/ctrl. rep. 2,NHE1 S602,0.92
same,Tirabrutinib/ctrl. rep. 1,NHE1 S605,0.95
same,Tirabrutinib/ctrl. rep. 2,NHE1 S605,0.92
same,Tirabrutinib/ctrl. rep. 1,NHE1 S785,1.08
same,Tirabrutinib/ctrl. rep. 2,NHE1 S785,1.26
same,Tirabrutinib/ctrl. rep. 1,NHE1 S796,0.80
same,Tirabrutinib/ctrl. rep. 2,NHE1 S796,0.78
same,Tirabrutinib/ctrl. rep. 1,PEA15 S82,0.89
same,Tirabrutinib/ctrl. rep. 2,PEA15 S82,0.86
same,Tirabrutinib/ctrl. rep. 1,PEA15 S137,1.18
same,Tirabrutinib/ctrl. rep. 2,PEA15 S137,1.03
same,Tirabrutinib/ctrl. rep. 1,PIK3AP1 S642,1.22
same,Tirabrutinib/ctrl. rep. 2,PIK3AP1 S642,0.88
same,Tirabrutinib/ctrl. rep. 1,PIK3AP1 T151,1.02
same,Tirabrutinib/ctrl. rep. 2,PIK3AP1 T151,1.07
same,Tirabrutinib/ctrl. rep. 1,PLCG2 S341,0.84
same,Tirabrutinib/ctrl. rep. 2,PLCG2 S341,1.25
same,Tirabrutinib/ctrl. rep. 1,PLCG2 S871,0.99
same,Tirabrutinib/ctrl. rep. 2,PLCG2 S871,0.98
same,Tirabrutinib/ctrl. rep. 1,PLCG2 S1236,1.17
same,Tirabrutinib/ctrl. rep. 2,PLCG2 S1236,0.99
same,Tirabrutinib/ctrl. rep. 1,PRKCB T497,0.99
same,Tirabrutinib/ctrl. rep. 2,PRKCB T497,1.00
same,Tirabrutinib/ctrl. rep. 1,PRKCB T500,0.99
same,Tirabrutinib/ctrl. rep. 2,PRKCB T500,1.00
same,Tirabrutinib/ctrl. rep. 1,PRKCB T641,1.02
same,Tirabrutinib/ctrl. rep. 2,PRKCB T641,1.00
same,Tirabrutinib/ctrl. rep. 1,PRKD2 S189,0.90
same,Tirabrutinib/ctrl. rep. 2,PRKD2 S189,0.70
same,Tirabrutinib/ctrl. rep. 1,PRKD2 S206,0.86
same,Tirabrutinib/ctrl. rep. 2,PRKD2 S206,0.83
same,Tirabrutinib/ctrl. rep. 1,PRKD2 S375,0.91
same,Tirabrutinib/ctrl. rep. 2,PRKD2 S375,0.81
same,Tirabrutinib/ctrl. rep. 1,PRKD2 S706,0.77
same,Tirabrutinib/ctrl. rep. 2,PRKD2 S706,0.50
same,Tirabrutinib/ctrl. rep. 1,PRKD2 S710,0.90
same,Tirabrutinib/ctrl. rep. 2,PRKD2 S710,0.77
same,Tirabrutinib/ctrl. rep. 2,PRKD3 S6,0.88
same,Tirabrutinib/ctrl. rep. 2,PRKD3 S27,0.99
same,Tirabrutinib/ctrl. rep. 1,PRKD3 S30,0.97
same,Tirabrutinib/ctrl. rep. 1,PRKD3 S31,0.99
same,Tirabrutinib/ctrl. rep. 2,PRKD3 S31,0.97
same,Tirabrutinib/ctrl. rep. 1,PRKD3 S44,1.09
same,Tirabrutinib/ctrl. rep. 2,PRKD3 S44,1.04
same,Tirabrutinib/ctrl. rep. 1,PRKD3 S213,1.29
same,Tirabrutinib/ctrl. rep. 2,PRKD3 S213,1.25
same,Tirabrutinib/ctrl. rep. 2,PRKD3 S364,1.20
same,Tirabrutinib/ctrl. rep. 1,PRKD3 S376,0.80
same,Tirabrutinib/ctrl. rep. 2,PRKD3 S376,0.94
same,Tirabrutinib/ctrl. rep. 1,PRKD3 S391,0.99
same,Tirabrutinib/ctrl. rep. 2,PRKD3 S391,0.97
same,Tirabrutinib/ctrl. rep. 2,PRKD3 S543,1.05
same,Tirabrutinib/ctrl. rep. 1,PRKD3 S731,0.72
same,Tirabrutinib/ctrl. rep. 2,PRKD3 S731,0.48
same,Tirabrutinib/ctrl. rep. 1,PRKD3 S735,0.85
same,Tirabrutinib/ctrl. rep. 2,PRKD3 S735,0.77
same,Tirabrutinib/ctrl. rep. 1,RAF1 S12,1.45
same,Tirabrutinib/ctrl. rep. 2,RAF1 S12,0.88
same,Tirabrutinib/ctrl. rep. 2,RAF1 S316,0.94
same,Tirabrutinib/ctrl. rep. 1,RAF1 S377,0.98
same,Tirabrutinib/ctrl. rep. 2,RAF1 S377,1.08
same,Tirabrutinib/ctrl. rep. 1,RAF1 S641,1.04
same,Tirabrutinib/ctrl. rep. 2,RAF1 S641,0.98
same,Tirabrutinib/ctrl. rep. 2,RAF1 T661,0.73
same,Tirabrutinib/ctrl. rep. 1,RELA S238,1.26
same,Tirabrutinib/ctrl. rep. 2,RELA S238,0.86
same,Tirabrutinib/ctrl. rep. 1,RPS6KA1 S230,0.99
same,Tirabrutinib/ctrl. rep. 2,RPS6KA1 S230,0.99
same,Tirabrutinib/ctrl. rep. 1,RPS6KA1 S389,1.55
same,Tirabrutinib/ctrl. rep. 2,RPS6KA1 S389,1.00
same,Tirabrutinib/ctrl. rep. 1,RPS6KA1 S741,1.16
same,Tirabrutinib/ctrl. rep. 2,RPS6KA1 S741,0.87
same,Tirabrutinib/ctrl. rep. 1,TSC2 S1132,1.15
same,Tirabrutinib/ctrl. rep. 2,TSC2 S1132,0.89
same,Tirabrutinib/ctrl. rep. 1,TSC2 S1254,0.44
same,Tirabrutinib/ctrl. rep. 2,TSC2 S1254,0.70
same,Tirabrutinib/ctrl. rep. 1,TSC2 S1336,1.59
same,Tirabrutinib/ctrl. rep. 2,TSC2 S1336,1.33
same,Tirabrutinib/ctrl. rep. 1,TSC2 S1346,1.14
same,Tirabrutinib/ctrl. rep. 2,TSC2 S1346,1.02
same,Tirabrutinib/ctrl. rep. 1,TSC2 S1364,0.82
same,Tirabrutinib/ctrl. rep. 2,TSC2 S1364,0.98
same,Tirabrutinib/ctrl. rep. 1,TSC2 S1385,1.01
same,Tirabrutinib/ctrl. rep. 2,TSC2 S1385,1.30
same,Tirabrutinib/ctrl. rep. 1,TSC2 S1411,0.93
same,Tirabrutinib/ctrl. rep. 2,TSC2 S1411,0.98
same,Tirabrutinib/ctrl. rep. 2,TSC2 S1420,0.93
same,Tirabrutinib/ctrl. rep. 2,TSC2 S1448,1.43
same,Tirabrutinib/ctrl. rep. 1,TSC2 S1449,1.16
same,Tirabrutinib/ctrl. rep. 1,TSC2 S1452,1.16
same,Tirabrutinib/ctrl. rep. 2,TSC2 S1452,1.04
same,Tirabrutinib/ctrl. rep. 1,TSC2 S1798,0.76
same,Tirabrutinib/ctrl. rep. 2,TSC2 S1798,0.73
same,Tirabrutinib/ctrl. rep. 2,YBX1 S2,0.99
same,Tirabrutinib/ctrl. rep. 2,YBX1 S3,0.99
same,Tirabrutinib/ctrl. rep. 1,YBX1 S165,0.98
same,Tirabrutinib/ctrl. rep. 2,YBX1 S165,0.91
same,Tirabrutinib/ctrl. rep. 1,YBX1 S167,0.91
same,Tirabrutinib/ctrl. rep. 2,YBX1 S167,1.13

# From paper PMC10004634 (PLOS ONE, 2023)
